The source made the active and inactive calls. For most assays here, no stated cut-off is given here; in the data, actives have a measured IC50 and inactives only a lower limit.
Assays:
Format in all cases: functional
[1] = molecular target: T1, Sentrin-specific protease 7 (Homo sapiens, UniProt Q9BQF6);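 further: Luminescence-based dose-response confirmation of ultra-high-throughput screening hits, measuring inhibition of SENP7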
T1 sequence (Q9BQF6 whole entry): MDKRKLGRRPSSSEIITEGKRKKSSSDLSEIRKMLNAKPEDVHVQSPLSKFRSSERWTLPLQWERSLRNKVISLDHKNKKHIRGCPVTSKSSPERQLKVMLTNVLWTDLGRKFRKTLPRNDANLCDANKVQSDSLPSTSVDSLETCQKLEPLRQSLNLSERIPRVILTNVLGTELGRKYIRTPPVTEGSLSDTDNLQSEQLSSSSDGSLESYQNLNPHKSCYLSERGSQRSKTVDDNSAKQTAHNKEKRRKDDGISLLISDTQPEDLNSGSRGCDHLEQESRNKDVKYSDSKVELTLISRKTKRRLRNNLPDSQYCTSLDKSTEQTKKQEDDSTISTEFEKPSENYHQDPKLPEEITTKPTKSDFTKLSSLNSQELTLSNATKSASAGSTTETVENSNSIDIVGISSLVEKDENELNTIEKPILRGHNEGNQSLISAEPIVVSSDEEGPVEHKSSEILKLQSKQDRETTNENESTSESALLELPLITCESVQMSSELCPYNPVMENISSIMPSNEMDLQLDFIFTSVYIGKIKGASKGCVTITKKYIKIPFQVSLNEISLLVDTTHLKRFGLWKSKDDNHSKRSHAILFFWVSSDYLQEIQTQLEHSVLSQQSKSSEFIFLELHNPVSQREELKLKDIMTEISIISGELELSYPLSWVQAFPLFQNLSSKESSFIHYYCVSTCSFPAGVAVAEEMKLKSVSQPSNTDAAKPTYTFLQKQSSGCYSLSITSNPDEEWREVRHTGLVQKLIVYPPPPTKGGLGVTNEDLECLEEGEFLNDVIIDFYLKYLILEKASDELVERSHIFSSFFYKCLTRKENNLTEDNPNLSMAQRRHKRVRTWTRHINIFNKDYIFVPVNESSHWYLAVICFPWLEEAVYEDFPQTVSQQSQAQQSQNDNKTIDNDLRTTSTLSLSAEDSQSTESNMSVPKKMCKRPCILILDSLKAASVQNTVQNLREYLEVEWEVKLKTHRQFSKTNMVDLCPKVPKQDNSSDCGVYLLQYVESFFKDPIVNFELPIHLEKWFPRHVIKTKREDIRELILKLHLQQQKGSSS

[2] = molecular target: T2, Sentrin-specific protease 6 (Homo sapiens, UniProt Q9GZR1); assay: SAR Analysis of small molecule inhibitors of Sentrin-specific protease 6 (SENP6) using a Luminescent assay. [Related pubchem assays (depositor defined):AID2582, AID2599]
T2 sequence (Q9GZR1 whole entry): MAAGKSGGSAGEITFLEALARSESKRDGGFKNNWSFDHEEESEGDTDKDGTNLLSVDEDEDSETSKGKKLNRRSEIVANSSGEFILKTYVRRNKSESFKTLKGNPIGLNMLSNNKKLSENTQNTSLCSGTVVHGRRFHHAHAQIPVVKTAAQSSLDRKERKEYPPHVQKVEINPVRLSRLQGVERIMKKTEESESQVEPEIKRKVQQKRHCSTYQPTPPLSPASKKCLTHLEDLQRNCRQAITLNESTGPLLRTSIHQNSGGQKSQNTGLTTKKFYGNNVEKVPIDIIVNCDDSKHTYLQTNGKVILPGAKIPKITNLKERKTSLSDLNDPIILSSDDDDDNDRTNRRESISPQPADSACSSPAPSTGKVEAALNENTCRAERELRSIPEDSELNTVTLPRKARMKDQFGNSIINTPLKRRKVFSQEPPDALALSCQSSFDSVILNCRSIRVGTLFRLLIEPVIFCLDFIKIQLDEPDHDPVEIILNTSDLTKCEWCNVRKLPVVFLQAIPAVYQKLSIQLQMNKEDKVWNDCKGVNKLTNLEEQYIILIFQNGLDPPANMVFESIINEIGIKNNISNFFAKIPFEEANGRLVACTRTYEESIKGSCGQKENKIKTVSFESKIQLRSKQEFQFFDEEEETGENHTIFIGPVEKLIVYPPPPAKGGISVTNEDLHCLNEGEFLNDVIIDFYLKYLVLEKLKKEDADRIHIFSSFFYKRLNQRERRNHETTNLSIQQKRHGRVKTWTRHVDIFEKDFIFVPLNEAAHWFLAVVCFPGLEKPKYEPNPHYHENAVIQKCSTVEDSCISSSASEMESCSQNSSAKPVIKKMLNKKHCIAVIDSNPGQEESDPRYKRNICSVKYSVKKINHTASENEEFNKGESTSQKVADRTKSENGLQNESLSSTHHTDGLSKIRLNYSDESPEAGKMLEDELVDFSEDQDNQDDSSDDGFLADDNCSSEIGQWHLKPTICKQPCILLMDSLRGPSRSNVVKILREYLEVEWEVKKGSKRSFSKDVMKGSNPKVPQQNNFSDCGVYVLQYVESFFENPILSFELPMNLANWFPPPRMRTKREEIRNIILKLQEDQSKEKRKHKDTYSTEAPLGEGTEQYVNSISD

[3] = molecular target: T3, Replicative DNA helicase DnaB (Mycobacterium tuberculosis, UniProt P9WMR3); assay: DnaB intein splicing inhibitors, dose response, biochemical, cell-free fluorescence (AID 449749)
T3 sequence (P9WMR3 whole entry): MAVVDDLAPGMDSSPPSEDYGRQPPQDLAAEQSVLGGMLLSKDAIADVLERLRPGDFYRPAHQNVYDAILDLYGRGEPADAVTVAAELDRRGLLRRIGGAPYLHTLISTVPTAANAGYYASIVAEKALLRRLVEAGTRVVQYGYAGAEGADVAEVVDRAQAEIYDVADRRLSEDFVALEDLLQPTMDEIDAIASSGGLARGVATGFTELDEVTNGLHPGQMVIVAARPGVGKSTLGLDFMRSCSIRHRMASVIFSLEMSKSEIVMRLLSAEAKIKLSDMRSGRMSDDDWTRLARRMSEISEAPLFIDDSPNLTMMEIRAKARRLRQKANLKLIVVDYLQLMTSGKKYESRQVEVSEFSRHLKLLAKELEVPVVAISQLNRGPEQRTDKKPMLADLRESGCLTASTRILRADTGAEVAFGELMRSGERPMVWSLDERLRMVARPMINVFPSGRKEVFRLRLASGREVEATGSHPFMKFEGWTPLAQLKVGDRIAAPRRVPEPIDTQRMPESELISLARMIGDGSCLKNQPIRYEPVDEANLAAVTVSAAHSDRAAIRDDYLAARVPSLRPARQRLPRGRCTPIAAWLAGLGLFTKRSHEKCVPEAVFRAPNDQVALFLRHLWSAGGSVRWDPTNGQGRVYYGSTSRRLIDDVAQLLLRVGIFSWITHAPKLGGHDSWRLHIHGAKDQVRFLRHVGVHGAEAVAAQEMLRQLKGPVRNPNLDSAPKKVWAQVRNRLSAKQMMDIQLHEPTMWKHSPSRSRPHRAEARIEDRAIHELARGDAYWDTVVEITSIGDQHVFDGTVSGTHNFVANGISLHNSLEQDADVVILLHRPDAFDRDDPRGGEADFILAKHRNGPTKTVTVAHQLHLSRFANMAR

O=C(NN=c1c(=O)c2ccccc2c1=O)c1ccccc1
active: IC50 [1] 10.7 µM | IC50 [2] 5.31 µM | AC50 [3] 3.42 µM

Source: ChEMBL document CHEMBL1201862, “PubChem BioAssay data set” (2004)
